Test results reported in patent US20220089602A1, “COMPOUNDS THAT INDUCE FERROPTIC CELL DEATH” (The Board of Trustees of the University of Illinois, priority 2019, published 2022).

Experiments:
[1] = target: T1, GSTO1 (Homo sapiens, UniProt P78417); test: Biotin-streptavidin pulldown with P29, competition by ferroptocide, LC/LC-MS/MS; type: binding; conditions: DMSO/ferroptocide spectral count ratio of P29-labeled enriched proteins
T1 construct: endogenous in cells; host or cells: HCT 116 (and ES-2) cells
Method: (§1) ES-2 and HCT 116 (20×10^6 cells/flask) were plated in T175 flasks and treated with DMSO or 20 µM ferroptocide for 1 hr followed by treatment with 20 μM P29 for 1 hr. Cells were lysed via sonication (6500 g, 4 min) in DPBS and the soluble proteome was isolated after […] (45000 g, 45 min). Bradford assay was used to determine protein concentration. The soluble protein lysates in DPBS (pH 7.4) (500 μL, 2 mg/mL) were treated with biotin-azide (100 μM, 50× stock in DMSO), TCEP (1 mM, 50× fresh stock in water), TBTA ligand (100 μM, 17× stock in DMSO:t-butanol=1:4), and copper(II) sulfate (1 mM, 50× stock in water) followed by incubation at r.t. for 1 hr. Samples were centrifuged (6500 g, 4 min, 4° C.) and the supernatant was discarded. The pellets were resuspended in cold methanol by sonication (2×) and then were solubilized in DPBS containing 1.2% SDS via sonication and heating (90° C., 5 min). A final SDS concentration of 0.2% was achieved after addition of 5 mL of DPBS to the SDS-solubilized proteome samples. The solution was incubated overnight at 4° C. with 100 μL of streptavidin-agarose beads (ThermoFisher, washed 3× with DPBS to remove storage buffer). Samples were rotated at 22° C. for 2 hr before being washed by 5 mL 0.2% SDS/DPBS, 3×5 mL DPBS, and 3×5 mL water. The beads were pelleted by centrifugation (1400×g, 3 min) between washes.
(§2) The washed beads were suspended in 500 μL of 6 M urea/DPBS and 10 mM DTT (from 20× stock in water) and heated for 20 min on a 65° C. heat block. Upon addition of iodoacetamide (20 mM from 50× stock in water), samples were allowed to react at 37° C. for 30 min while shaking. Following reduction and alkylation, the beads were pelleted by centrifugation and resuspended in 200 μL of 2 M urea/DPBS, 1 mM CaCl2) (100× stock in water), and sequencing-grade trypsin (2 μg). The bead digestion occurred overnight at 37° C. while shaking. Next day, the beads were pelleted by centrifugation and washed with 2×50 μL water. The washes were combined with the supernatant from the trypsin digestion step, and after addition of formic acid (15 μL) to each sample, they were stored at −20° C. until mass spectrometry analysis.
(§3) LC/LC-MS/MS analysis was performed on an LTQ-Orbitrap Discovery mass spectrometer (ThermoFisher) coupled to an Agilent 1200 series HPLC. Peptide digests were pressure loaded onto a 250 m fused silica desalting column packed with 4 cm of Aqua C18 reverse phase resin (Phenomenex). The peptides were eluted onto a biphasic column (100 m fused silica with a 5, tip, packed with 10 cm C18 and 4 cm Partisphere strong cation exchange resin (SCX, Whatman) using a gradient 5-100% Buffer B in Buffer A (Buffer A: 95% water, 5% acetonitrile, 0.1% formic acid; Buffer B: 20% water, 80% acetonitrile, 0.1% formic acid). The peptides were then eluted from the SCX onto the C18 resin and into the mass spectrometer using 4 salt steps previously described (Nat. Protoc. 2, 1414-1425, (2007)). The flow rate through the column was set to ˜0.25 μL/min and the spray voltage was set to 2.75 kV. One full MS scan (FTMS) (400-1800 MW) was followed by 8 data dependent scans (ITMS) of the n^th most intense ions. The tandem MS data were searched using the SEQUEST algorithm using a concatenated target/decoy variant of the human UniProt database. A static modification of +57.02146 on cysteine was specified to account for alkylation by iodoacetamide. MS2 spectra matches were assembled into protein identifications and filtered using DTASelect2.0 to generate a list of protein hits with a peptide false-discovery rate of 5%. The mass spectrometry proteomics data have been deposited to the ProteomeXchange Consortium via the PRIDE [1] partner repository with the dataset identifier PXD012805.

[2] = target: T2, KEAP1 (Homo sapiens, UniProt Q14145); test: as above; type: binding; conditions: DMSO/ferroptocide spectral count ratio of P29-labeled enriched proteins
T2 construct: endogenous in cells; host or cells: HCT 116 (and ES-2) cells
Method: as §1, §2, §3

[3] = target: T3, PDP1 (Homo sapiens, UniProt Q9P0J1); test: as above; type: binding; conditions: DMSO/ferroptocide spectral count ratio of P29-labeled enriched proteins
T3 construct: endogenous in cells; host or cells: HCT 116 (and ES-2) cells
Method: as §1, §2, §3

[4] = target: T4, PGLS (Homo sapiens, UniProt O95336); test: as above; type: binding; conditions: DMSO/ferroptocide spectral count ratio of P29-labeled enriched proteins
T4 construct: endogenous in cells; host or cells: HCT 116 (and ES-2) cells
Method: as §1, §2, §3

[5] = target: T5, PTGES2 (Homo sapiens, UniProt Q9H7Z7); test: as above; type: binding; conditions: DMSO/ferroptocide spectral count ratio of P29-labeled enriched proteins
T5 construct: endogenous in cells; host or cells: HCT 116 (and ES-2) cells
Method: as §1, §2, §3

[6] = target: T6, TXN (Homo sapiens, UniProt P10599); test: as above; type: binding; conditions: DMSO/ferroptocide spectral count ratio of P29-labeled enriched proteins
T6 construct: endogenous in cells; host or cells: HCT 116 (and ES-2) cells
Method: as §1, §2, §3

[7] = target: T7, TXNRD1 (Homo sapiens, UniProt Q16881); test: as above; type: binding; conditions: DMSO/ferroptocide spectral count ratio of P29-labeled enriched proteins
T7 construct: HCT 116 cells were pre-treated with ferroptocide or DMSO, followed by treatment with P29; endogenous in cells; host or cells: HCT 116 (and ES-2) cells
Method: as §1, §2, §3

[8] = target: T8, TXNRD2 (Homo sapiens, UniProt Q9NNW7); test: as above; type: binding; conditions: DMSO/ferroptocide spectral count ratio of P29-labeled enriched proteins
T8 construct: HCT 116 cells were pre-treated with ferroptocide or DMSO, followed by treatment with P29; endogenous in cells; host or cells: HCT 116 (and ES-2) cells
Method: as §1, §2, §3

[9] = target: T9, TXNRD3 (Homo sapiens, UniProt Q86VQ6); test: as above; type: binding; conditions: DMSO/ferroptocide spectral count ratio of P29-labeled enriched proteins
T9 construct: endogenous in cells; host or cells: HCT 116 (and ES-2) cells
Method: as §1, §2, §3

[10] = test system: ES-2 cells; test: Cellular ROS production (carboxy-H2DCFDA); type: cell-based; conditions: 1 hr
Method: (§4) ES-2 and HCT 116 cells (3×10^5 cells/mL) were plated in 6-well plates. Cells were treated with DMSO, ferroptocide at the indicated concentrations, Etoposide (100 μM), TBHP (100 μM) for 1 hr and 1.5 hr respectively. Cells were washed with HBSS and incubated in the dark for 25 min with 25 μM carboxy-H2DCFDA probe. Cells were then washed 3× with HBSS and harvested at 1000×g, 3 min. After resuspension in 500 μl HBSS buffer, samples were subjected to flow cytometry to record ten thousand events per sample in FL1 channel in BD LSR II Flow Cytometer (BD Bioscience). FCS express V6 De Novo software was used to generate the histograms.

[11] = test system: HCT 116 cells; test: Cellular ROS production (carboxy-H2DCFDA); type: cell-based; conditions: 1.5 hr
Method: as §4

T1 sequence (P78417 whole entry): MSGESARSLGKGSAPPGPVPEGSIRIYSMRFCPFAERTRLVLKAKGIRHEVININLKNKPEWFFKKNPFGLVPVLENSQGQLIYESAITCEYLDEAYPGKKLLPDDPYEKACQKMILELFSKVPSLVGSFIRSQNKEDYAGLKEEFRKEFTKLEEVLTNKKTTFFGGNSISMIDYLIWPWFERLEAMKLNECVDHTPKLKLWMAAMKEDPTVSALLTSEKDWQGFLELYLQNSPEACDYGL
T2 sequence (Q14145 whole entry): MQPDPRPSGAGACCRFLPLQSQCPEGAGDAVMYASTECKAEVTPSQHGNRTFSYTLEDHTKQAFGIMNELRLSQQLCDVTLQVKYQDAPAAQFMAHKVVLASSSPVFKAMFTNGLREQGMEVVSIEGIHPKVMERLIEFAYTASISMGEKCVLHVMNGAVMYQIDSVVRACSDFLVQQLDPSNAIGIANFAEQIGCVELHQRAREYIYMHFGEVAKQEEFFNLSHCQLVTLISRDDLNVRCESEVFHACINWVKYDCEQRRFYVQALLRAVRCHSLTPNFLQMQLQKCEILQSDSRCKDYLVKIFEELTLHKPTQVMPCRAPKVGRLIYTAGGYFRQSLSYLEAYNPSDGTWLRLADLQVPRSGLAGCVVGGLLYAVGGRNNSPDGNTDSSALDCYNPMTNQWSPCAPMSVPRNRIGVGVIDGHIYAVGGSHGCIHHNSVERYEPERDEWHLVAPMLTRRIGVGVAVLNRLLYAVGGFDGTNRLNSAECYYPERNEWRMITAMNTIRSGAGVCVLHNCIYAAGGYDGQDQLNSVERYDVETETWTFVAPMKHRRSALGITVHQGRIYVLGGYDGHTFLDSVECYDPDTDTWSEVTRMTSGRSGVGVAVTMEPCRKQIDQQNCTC
T6 sequence (P10599 whole entry): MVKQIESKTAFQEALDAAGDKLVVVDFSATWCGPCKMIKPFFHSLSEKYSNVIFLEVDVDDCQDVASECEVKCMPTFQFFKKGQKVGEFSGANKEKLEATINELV
T9 sequence (Q86VQ6 whole entry): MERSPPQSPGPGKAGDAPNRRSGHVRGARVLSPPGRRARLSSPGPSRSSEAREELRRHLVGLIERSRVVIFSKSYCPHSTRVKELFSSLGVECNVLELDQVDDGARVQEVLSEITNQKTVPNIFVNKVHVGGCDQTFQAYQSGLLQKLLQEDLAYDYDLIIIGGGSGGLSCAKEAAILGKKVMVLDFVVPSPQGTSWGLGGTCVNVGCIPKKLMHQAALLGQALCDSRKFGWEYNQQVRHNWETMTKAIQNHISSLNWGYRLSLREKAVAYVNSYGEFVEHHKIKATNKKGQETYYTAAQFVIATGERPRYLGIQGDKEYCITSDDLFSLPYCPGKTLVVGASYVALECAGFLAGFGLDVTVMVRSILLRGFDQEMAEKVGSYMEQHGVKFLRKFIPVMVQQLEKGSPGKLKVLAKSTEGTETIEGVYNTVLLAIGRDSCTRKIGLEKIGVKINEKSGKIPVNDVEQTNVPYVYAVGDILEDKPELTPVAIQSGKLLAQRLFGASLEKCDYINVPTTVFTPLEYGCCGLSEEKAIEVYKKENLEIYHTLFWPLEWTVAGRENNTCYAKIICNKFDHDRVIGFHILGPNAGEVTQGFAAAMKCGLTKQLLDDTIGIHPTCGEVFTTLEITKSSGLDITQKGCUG
T8 sequence (Q9NNW7 37-524): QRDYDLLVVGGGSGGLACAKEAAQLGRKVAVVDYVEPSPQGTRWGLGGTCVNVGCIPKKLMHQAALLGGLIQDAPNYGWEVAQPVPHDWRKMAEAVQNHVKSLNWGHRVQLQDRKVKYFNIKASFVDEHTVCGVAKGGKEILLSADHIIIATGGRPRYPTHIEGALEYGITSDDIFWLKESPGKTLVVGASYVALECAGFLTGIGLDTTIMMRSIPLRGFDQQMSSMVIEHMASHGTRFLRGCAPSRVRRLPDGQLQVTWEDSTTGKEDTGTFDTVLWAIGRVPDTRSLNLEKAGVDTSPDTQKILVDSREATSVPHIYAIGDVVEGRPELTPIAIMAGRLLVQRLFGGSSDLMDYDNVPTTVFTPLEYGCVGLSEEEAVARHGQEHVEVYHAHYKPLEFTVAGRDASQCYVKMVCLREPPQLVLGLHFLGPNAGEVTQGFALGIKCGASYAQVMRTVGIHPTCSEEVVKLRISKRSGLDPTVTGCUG
T5 sequence (Q9H7Z7 whole entry): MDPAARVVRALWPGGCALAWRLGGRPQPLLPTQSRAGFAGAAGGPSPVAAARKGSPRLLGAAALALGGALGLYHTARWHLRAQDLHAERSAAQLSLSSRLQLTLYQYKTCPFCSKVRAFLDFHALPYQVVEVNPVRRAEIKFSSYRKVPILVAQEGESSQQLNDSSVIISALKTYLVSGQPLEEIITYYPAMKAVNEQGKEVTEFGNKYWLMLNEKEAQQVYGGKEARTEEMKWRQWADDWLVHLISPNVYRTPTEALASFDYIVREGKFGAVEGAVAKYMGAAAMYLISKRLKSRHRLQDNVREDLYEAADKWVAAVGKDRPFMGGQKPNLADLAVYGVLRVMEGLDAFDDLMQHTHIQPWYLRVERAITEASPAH
T7 sequence (Q16881 151-649 limits assumed): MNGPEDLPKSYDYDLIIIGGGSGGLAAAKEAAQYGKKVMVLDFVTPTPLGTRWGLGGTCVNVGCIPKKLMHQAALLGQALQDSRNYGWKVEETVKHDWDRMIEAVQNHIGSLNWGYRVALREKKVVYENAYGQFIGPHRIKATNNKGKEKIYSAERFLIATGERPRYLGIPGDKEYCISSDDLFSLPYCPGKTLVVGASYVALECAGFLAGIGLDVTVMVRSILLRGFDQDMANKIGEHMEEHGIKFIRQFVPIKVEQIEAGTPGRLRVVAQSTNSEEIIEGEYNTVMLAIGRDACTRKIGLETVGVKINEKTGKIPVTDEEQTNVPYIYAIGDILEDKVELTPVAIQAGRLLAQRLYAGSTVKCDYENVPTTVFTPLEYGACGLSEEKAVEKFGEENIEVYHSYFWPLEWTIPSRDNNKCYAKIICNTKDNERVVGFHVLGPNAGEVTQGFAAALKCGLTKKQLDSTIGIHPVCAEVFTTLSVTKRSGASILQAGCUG
T4 sequence (O95336 whole entry): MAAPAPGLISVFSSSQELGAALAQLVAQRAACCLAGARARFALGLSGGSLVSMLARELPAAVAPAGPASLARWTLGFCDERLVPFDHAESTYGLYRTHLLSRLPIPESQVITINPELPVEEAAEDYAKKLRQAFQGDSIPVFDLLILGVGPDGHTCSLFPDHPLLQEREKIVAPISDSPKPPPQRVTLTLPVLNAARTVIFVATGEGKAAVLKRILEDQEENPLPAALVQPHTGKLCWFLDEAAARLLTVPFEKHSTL
T3 sequence (Q9P0J1 72-537): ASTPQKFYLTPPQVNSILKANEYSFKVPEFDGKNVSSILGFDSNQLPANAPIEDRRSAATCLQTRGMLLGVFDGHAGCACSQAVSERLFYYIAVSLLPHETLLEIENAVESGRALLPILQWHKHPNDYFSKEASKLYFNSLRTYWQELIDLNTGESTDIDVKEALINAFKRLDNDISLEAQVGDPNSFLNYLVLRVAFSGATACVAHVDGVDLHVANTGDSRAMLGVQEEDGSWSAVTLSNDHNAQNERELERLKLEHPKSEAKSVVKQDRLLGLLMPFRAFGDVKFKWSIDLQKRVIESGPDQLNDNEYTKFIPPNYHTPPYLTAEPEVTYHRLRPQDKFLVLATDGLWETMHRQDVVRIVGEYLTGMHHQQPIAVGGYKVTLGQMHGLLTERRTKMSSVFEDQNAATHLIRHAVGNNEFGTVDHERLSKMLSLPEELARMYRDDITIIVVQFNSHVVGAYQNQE

## C[C@@H]1CC[C@@]23C[C@H](O)C(=O)[C@@]2(O)[C@]1(C)[C@H](OC(=O)CCl)C[C@@H](C1=CCn2c(=O)n(-c4ccccc4)c(=O)n2C1)[C@@H]3C [Compound P18, ferroptocide]
[1]
  Fold Change: 3.6
[2]
  Fold Change: 3.1
[3]
  Fold Change: 3.7
[4]
  Fold Change: 2.7
[5]
  Fold Change: 18
[6]
  Fold Change: 11.1
[7]
  Fold Change: 4.9
[8]
  Fold Change: 2
[9]
  Fold Change: 7.4
[10]
  ROS production: Dose-dependent ROS production
[11]
  ROS production: Dose-dependent ROS production
